Data published in the supplement of paper PMC13380429.

Columns and labels:
[1] = test system: A549-ACE2 infected with SARS-CoV-2; assay: cell count relative to DMSO; higher = less toxic; conditions: 24 h
Caco-2 [2] = assay: cell viability relative to DMSO; higher = less toxic; conditions: 72 h
HepG2 [3] = assay: as above; conditions: 72 h
U2OS [4] = assay: as above; conditions: 72 h
Vero E6 [5] = assay: as above; conditions: 72 h
[6] = test system: A549-ACE2 infected with SARS-CoV-2; assay: SARS-CoV-2 infection rate relative to DMSO; higher = more infection; conditions: 24 h
A549-ACE2 [7] = assay: drug-induced phospholipidosis relative to tamoxifen; higher = more phospholipidosis
[8] = test system: A549-ACE2 infected with SARS-CoV-2; assay: morphology score (similarity to uninfected cells); higher = more like uninfected cells; conditions: 24 h
HepG2 [9] = assay: relative viability EC50 (midpoint between 100% and the lowest measured viability); higher = less toxic; conditions: 72 h
U2OS [10] = assay: as above; conditions: 72 h
Vero E6 [11] = assay: as above; conditions: 72 h
Caco-2 [12] = assay: drug sensitivity score (DSS) for viability; higher = more toxic; extreme values may be limits of the assay; conditions: 72 h
HepG2 [13] = assay: as above; conditions: 72 h
U2OS [14] = assay: as above; conditions: 72 h
Vero E6 [15] = assay: as above; conditions: 72 h
Calu-3 [16] = assay: cell viability relative to DMSO; higher = less toxic; conditions: 72 h
A549-ACE2 [17] = assay: phospholipidosis EC50; higher = less potent phospholipidosis inducer
Caco-2 [18] = assay: relative viability EC50 (midpoint between 100% and the lowest measured viability); higher = less toxic; conditions: 72 h
Calu-3 [19] = assay: as above; conditions: 72 h
Calu-3 [20] = assay: drug sensitivity score (DSS) for viability; higher = more toxic; extreme values may be limits of the assay; conditions: 72 h

CN1C(=O)/C(=C2/C(=O)Nc3ccccc32)c2ccccc21 [meisoindigo]
Conditions	SARS-CoV-2 infection rate, [6] [%]	cell count, [1] [%]	cell viability, Caco-2 [2] [%]	cell viability, HepG2 [3] [%]	cell viability, U2OS [4] [%]	cell viability, Vero E6 [5] [%]	morphology score, [8]
1 nM	–	–	94.4	96.1	98	104	–
10 nM	–	–	104	101	102	102	–
0.1 µM	103	101	–	–	–	–	-0.25
100 nM	–	–	93.1	90.6	97.4	98.8	–
0.3 µM	103	102	–	–	–	–	-0.21
1 µM	102	98	–	–	–	–	-0.24
1000 nM	–	–	87.2	75.5	99	93.7	–
3 µM	97	101	–	–	–	–	-0.12
10000 nM	–	–	73.1	49	90.1	47.7	–

drug-induced phospholipidosis [%], A549-ACE2 [7]
Conditions	0.3 µM	0.833333 µM	3.33333 µM	6.66667 µM	10 µM	30 µM
24 h	-2.39	-5.22	-2.5	-1.79	–	6.15
48 h	-0.22	-2.93	-2.52	0.92	–	4.45
72 h	0.716	-2.02	-1.09	1.04	9.76	5.86

Conditions	drug sensitivity score	relative viability EC50 [µM]
Caco-2 [12]	2.2	–
HepG2 [9]	–	0.869
HepG2 [13]	5.6	–
U2OS [10]	–	> 10
U2OS [14]	0	–
Vero E6 [11]	–	2.18
Vero E6 [15]	3.8	–

CC(Cc1ccccc1)NCCC(c1ccccc1)c1ccccc1 (stereo unspecified) [prenylamine]
Conditions	SARS-CoV-2 infection rate [%]	cell count [%]	cell viability [%]	morphology score	phospholipidosis EC50 [µM]
A549-ACE2 [17], 24 h	–	–	–	–	3.65
A549-ACE2 [17], 48 h	–	–	–	–	4.62
A549-ACE2 [17], 72 h	–	–	–	–	6.27
Caco-2 [2], 1 nM	–	–	112	–	–
Caco-2 [2], 10 nM	–	–	101	–	–
Caco-2 [2], 100 nM	–	–	93.6	–	–
Caco-2 [2], 1000 nM	–	–	100	–	–
Caco-2 [2], 10000 nM	–	–	87.1	–	–
Calu-3 [16], 1 nM	–	–	103	–	–
Calu-3 [16], 10 nM	–	–	106	–	–
Calu-3 [16], 100 nM	–	–	95.3	–	–
Calu-3 [16], 1000 nM	–	–	106	–	–
Calu-3 [16], 10000 nM	–	–	17.9	–	–
HepG2 [3], 1 nM	–	–	110	–	–
HepG2 [3], 10 nM	–	–	110	–	–
HepG2 [3], 100 nM	–	–	101	–	–
HepG2 [3], 1000 nM	–	–	107	–	–
HepG2 [3], 10000 nM	–	–	64.5	–	–
U2OS [4], 1 nM	–	–	97.2	–	–
U2OS [4], 10 nM	–	–	94.7	–	–
U2OS [4], 100 nM	–	–	97.3	–	–
U2OS [4], 1000 nM	–	–	100	–	–
U2OS [4], 10000 nM	–	–	85.7	–	–
Vero E6 [5], 1 nM	–	–	103	–	–
Vero E6 [5], 10 nM	–	–	110	–	–
Vero E6 [5], 100 nM	–	–	102	–	–
Vero E6 [5], 1000 nM	–	–	102	–	–
Vero E6 [5], 10000 nM	–	–	89.3	–	–
[1], 0.3 µM	–	103	–	–	–
[1], 3 µM	–	119	–	–	–
[1], 10 µM	–	123	–	–	–
[1], 30 µM	–	19	–	–	–
[6], 0.3 µM	108	–	–	–	–
[6], 3 µM	47	–	–	–	–
[6], 10 µM	6	–	–	–	–
[6], 30 µM	43	–	–	–	–
[8], 0.3 µM	–	–	–	-0.03	–
[8], 3 µM	–	–	–	0.78	–
[8], 10 µM	–	–	–	0.92	–
[8], 30 µM	–	–	–	-0.09	–

drug-induced phospholipidosis [%], A549-ACE2 [7]
Conditions	0.3 µM	0.833333 µM	3.33333 µM	6.66667 µM	10 µM
24 h	2.14	1.61	44.8	88.2	97.4
48 h	3.35	0.12	33.5	85	103
72 h	3.19	2.37	29.7	74.3	100

Conditions	drug sensitivity score	relative viability EC50 [µM]
Caco-2 [12]	0.1	–
Caco-2 [18]	–	> 10
Calu-3 [19]	–	3.51
Calu-3 [20]	4.1	–
HepG2 [13]	1.3	–
U2OS [10]	–	> 10
U2OS [14]	0.2	–
Vero E6 [11]	–	> 10
Vero E6 [15]	0	–

O=C(NCc1ccccc1)c1csc(Nc2ccncn2)n1 [thiazovivin]
Conditions	SARS-CoV-2 infection rate, [6] [%]	cell count, [1] [%]	cell viability, Caco-2 [2] [%]	cell viability, Calu-3 [16] [%]	cell viability, HepG2 [3] [%]	cell viability, U2OS [4] [%]	cell viability, Vero E6 [5] [%]	morphology score, [8]
1 nM	–	–	95.1	102	90.1	105	101	–
10 nM	–	–	96.8	95.5	97.8	100	101	–
0.1 µM	98	115	–	–	–	–	–	0.31
100 nM	–	–	97.3	109	101	100	99.1	–
0.3 µM	101	108	–	–	–	–	–	0.18
1 µM	98	90	–	–	–	–	–	0.16
1000 nM	–	–	100	126	93.8	93.9	88.7	–
3 µM	108	88	–	–	–	–	–	-0.1
10000 nM	–	–	88.4	138	73.9	85.9	64.7	–

drug-induced phospholipidosis [%], A549-ACE2 [7]
Conditions	0.3 µM	0.833333 µM	3.33333 µM	6.66667 µM	10 µM	30 µM
24 h	-0.85	-1.1	-1.59	-0.13	1.72	4.97
48 h	-1.39	-3.9	-3.92	-1.45	-1.05	3.79
72 h	-0.652	-4.81	-3.84	-1.69	1.23	–

Conditions	drug sensitivity score	relative viability EC50 [µM]
Caco-2 [12]	0	–
Caco-2 [18]	–	> 10
Calu-3 [19]	–	> 10
Calu-3 [20]	0	–
HepG2 [13]	1.9	–
U2OS [10]	–	> 10
U2OS [14]	0.6	–
Vero E6 [15]	3.3	–

CN(C)C/C=C(/c1ccc(Br)cc1)c1cccnc1 [zimelidine]
cell viability [%]
Conditions	Caco-2 [2]	Calu-3 [16]	HepG2 [3]	U2OS [4]	Vero E6 [5]
1 nM	100	99.7	103	89.6	101
10 nM	98.9	107	97.8	97.5	100
100 nM	90.6	96.6	102	91.3	102
1000 nM	93.6	99.2	94.2	100	96.5
10000 nM	101	93	102	90.3	100

Conditions	drug sensitivity score	relative viability EC50 [µM]
Caco-2 [12]	0	–
Caco-2 [18]	–	> 10
Calu-3 [19]	–	> 10
Calu-3 [20]	0	–
HepG2 [9]	–	> 10
HepG2 [13]	0	–
U2OS [10]	–	> 10
U2OS [14]	0	–
Vero E6 [11]	–	> 10
Vero E6 [15]	0	–
